Source: ChEMBL document CHEMBL1909294, “Translating clinical findings into knowledge in drug safety evaluation--drug induced liver injury prediction system (DILIps)” (PLoS Comput Biol, 2011)

What was measured:
Hepatotoxicity [1] = test system: Hepatotoxicity;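 on HepSE Combined Scores: combined hepatic side effect score as listed in the training data of the Drug Induced Liver Injury Prediction System (DILIps)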;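 on HepSE elevated liver function tests: hepatic side effect score for raised liver function tests, as recorded in the DILIps training set used for predicting drug-induced liver injury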; on HepSE hepatic failure: call rule not given here;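 on HepSE hepatitis: Hepatitis-related hepatic side effect score taken from the training data of DILIps, a prediction system for drug-induced liver injury; call rule not given here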;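 on HepSE hepatomegaly: hepatic side effect score for hepatomegaly, taken from the training set of the DILIps drug-induced liver injury prediction system; call rule not given here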;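 on HepSE jaundice: Jaundice-related hepatic side-effect score drawn from the training data of the DILIps (drug-induced liver injury prediction system); call rule not given here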;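 on HepSE liver fatty: hepatic side effect score for fatty liver, taken from the DILIps training set for predicting drug-induced liver injury; call rule not given here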
Hepatotoxicity [2] = test system: Hepatotoxicity; remark: listed apart in the source;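 on HepSE Combined Scores: combined hepatic side effect score as listed in the training data of the Drug Induced Liver Injury Prediction System (DILIps)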;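 on HepSE elevated liver function tests: hepatic side effect score for raised liver function tests, as recorded in the DILIps training set used for predicting drug-induced liver injury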; on HepSE hepatic failure: call rule not given here;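 on HepSE hepatitis: Hepatitis-related hepatic side effect score taken from the training data of DILIps, a prediction system for drug-induced liver injury; call rule not given here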;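 on HepSE hepatomegaly: hepatic side effect score for hepatomegaly, taken from the training set of the DILIps drug-induced liver injury prediction system; call rule not given here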;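 on HepSE jaundice: Jaundice-related hepatic side-effect score drawn from the training data of the DILIps (drug-induced liver injury prediction system); call rule not given here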;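 on HepSE liver fatty: hepatic side effect score for fatty liver, taken from the DILIps training set for predicting drug-induced liver injury; call rule not given here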
Hepatotoxicity [3] = test system: Hepatotoxicity; remark: listed apart in the source;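 on HepSE Combined Scores: combined hepatic side effect score as listed in the training data of the Drug Induced Liver Injury Prediction System (DILIps)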; on HepSE hepatic failure: call rule not given here;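 on HepSE hepatitis: Hepatitis-related hepatic side effect score taken from the training data of DILIps, a prediction system for drug-induced liver injury; call rule not given here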;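 on HepSE hepatomegaly: hepatic side effect score for hepatomegaly, taken from the training set of the DILIps drug-induced liver injury prediction system; call rule not given here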;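 on HepSE jaundice: Jaundice-related hepatic side-effect score drawn from the training data of the DILIps (drug-induced liver injury prediction system); call rule not given here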;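 on HepSE liver fatty: hepatic side effect score for fatty liver, taken from the DILIps training set for predicting drug-induced liver injury; call rule not given here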
Hepatotoxicity [4] = test system: Hepatotoxicity; remark: listed apart in the source;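 on HepSE Combined Scores: combined hepatic side effect score as listed in the training data of the Drug Induced Liver Injury Prediction System (DILIps)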; on HepSE hepatic failure: call rule not given here;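 on HepSE hepatitis: Hepatitis-related hepatic side effect score taken from the training data of DILIps, a prediction system for drug-induced liver injury; call rule not given here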;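 on HepSE hepatomegaly: hepatic side effect score for hepatomegaly, taken from the training set of the DILIps drug-induced liver injury prediction system; call rule not given here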;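 on HepSE jaundice: Jaundice-related hepatic side-effect score drawn from the training data of the DILIps (drug-induced liver injury prediction system); call rule not given here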;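 on HepSE liver fatty: hepatic side effect score for fatty liver, taken from the DILIps training set for predicting drug-induced liver injury; call rule not given here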
Hepatotoxicity [5] = test system: Hepatotoxicity; remark: listed apart in the source; on HepSE hepatic failure: call rule not given here
Hepatotoxicity [6] = test system: Hepatotoxicity; remark: listed apart in the source; on HepSE hepatic failure: call rule not given here
Hepatotoxicity [7] = test system: Hepatotoxicity; remark: listed apart in the source
Hepatotoxicity [8] = test system: Hepatotoxicity; remark: listed apart in the source
Hepatotoxicity [9] = test system: Hepatotoxicity; remark: listed apart in the source
Hepatotoxicity [10] = test system: Hepatotoxicity; remark: listed apart in the source
Hepatotoxicity [11] = test system: Hepatotoxicity; remark: listed apart in the source
Hepatotoxicity [12] = test system: Hepatotoxicity; remark: listed apart in the source
Hepatotoxicity [13] = test system: Hepatotoxicity; remark: listed apart in the source
Hepatotoxicity [14] = test system: Hepatotoxicity; remark: listed apart in the source

CNCC(O)c1ccc(OC(=O)C(C)(C)C)c(OC(=O)C(C)(C)C)c1 (configuration not stated) [DIPIVEFRIN]
HepSE_hepatitis (Hepatotoxicity [1]): 0
HepSE_hepatic necrosis (Hepatotoxicity [2]): 0
HepSE_Combined Scores (Hepatotoxicity [3]): 0
HepSE_liver fatty (Hepatotoxicity [4]): 0
HepSE_cholelithiasis (Hepatotoxicity [5]): 0
HepSE_jaundice (Hepatotoxicity [6]): 0
HepSE_hepatomegaly (Hepatotoxicity [7]): 0
HepSE_hepatic failure (Hepatotoxicity [8]): 0
HepSE_elevated liver function tests (Hepatotoxicity [9]): 0
HepSE_bilirubinemia (Hepatotoxicity [10]): 0
HepSE_liver function tests abnormal (Hepatotoxicity [11]): 0
HepSE_cirrhosis (Hepatotoxicity [12]): 0
HepSE_liver disease (Hepatotoxicity [13]): 0
HepSE_cholecystitis (Hepatotoxicity [14]): 0

CC(C)(C)NCC(O)COc1cccc2c1CCC(=O)N2 (configuration not stated) [CARTEOLOL]
HepSE_hepatitis (Hepatotoxicity [1]): 0
HepSE_hepatic necrosis (Hepatotoxicity [2]): 0
HepSE_Combined Scores (Hepatotoxicity [3]): 0
HepSE_liver fatty (Hepatotoxicity [4]): 0
HepSE_cholelithiasis (Hepatotoxicity [5]): 0
HepSE_jaundice (Hepatotoxicity [6]): 0
HepSE_hepatomegaly (Hepatotoxicity [7]): 0
HepSE_hepatic failure (Hepatotoxicity [8]): 0
HepSE_elevated liver function tests (Hepatotoxicity [9]): 0
HepSE_bilirubinemia (Hepatotoxicity [10]): 0
HepSE_liver function tests abnormal (Hepatotoxicity [11]): 0
HepSE_cirrhosis (Hepatotoxicity [12]): 0
HepSE_liver disease (Hepatotoxicity [13]): 0
HepSE_cholecystitis (Hepatotoxicity [14]): 0

C[C@]12CCC(=O)C=C1CC[C@H]1[C@@H]3CC[C@](O)(C(=O)CO)[C@@]3(C)C[C@H](O)[C@@]12F [FLUDROCORTISONE]
HepSE_hepatitis (Hepatotoxicity [1]): 0
HepSE_hepatic necrosis (Hepatotoxicity [2]): 0
HepSE_Combined Scores (Hepatotoxicity [3]): 0
HepSE_liver fatty (Hepatotoxicity [4]): 0
HepSE_cholelithiasis (Hepatotoxicity [5]): 0
HepSE_jaundice (Hepatotoxicity [6]): 0
HepSE_hepatomegaly (Hepatotoxicity [7]): 0
HepSE_hepatic failure (Hepatotoxicity [8]): 0
HepSE_elevated liver function tests (Hepatotoxicity [9]): 0
HepSE_bilirubinemia (Hepatotoxicity [10]): 0
HepSE_liver function tests abnormal (Hepatotoxicity [11]): 0
HepSE_cirrhosis (Hepatotoxicity [12]): 0
HepSE_liver disease (Hepatotoxicity [13]): 0
HepSE_cholecystitis (Hepatotoxicity [14]): 0

Cc1c(OCC(F)(F)F)ccnc1C[S+]([O-])c1nc2ccccc2[nH]1 (configuration not stated) [LANSOPRAZOLE]
HepSE_hepatitis (Hepatotoxicity [1]): 0
HepSE_hepatic necrosis (Hepatotoxicity [2]): 0
HepSE_Combined Scores (Hepatotoxicity [3]): 4
HepSE_liver fatty (Hepatotoxicity [4]): 0
HepSE_cholelithiasis (Hepatotoxicity [5]): 1
HepSE_jaundice (Hepatotoxicity [6]): 1
HepSE_hepatomegaly (Hepatotoxicity [7]): 0
HepSE_hepatic failure (Hepatotoxicity [8]): 0
HepSE_elevated liver function tests (Hepatotoxicity [9]): 0
HepSE_bilirubinemia (Hepatotoxicity [10]): 1
HepSE_liver function tests abnormal (Hepatotoxicity [11]): 1
HepSE_cirrhosis (Hepatotoxicity [12]): 0
HepSE_liver disease (Hepatotoxicity [13]): 0
HepSE_cholecystitis (Hepatotoxicity [14]): 0

CC(=O)/N=c1/sc(S(N)(=O)=O)nn1C [METHAZOLAMIDE]
HepSE_hepatitis (Hepatotoxicity [1]): 0
HepSE_hepatic necrosis (Hepatotoxicity [2]): 1
HepSE_Combined Scores (Hepatotoxicity [3]): 1
HepSE_liver fatty (Hepatotoxicity [4]): 0
HepSE_cholelithiasis (Hepatotoxicity [5]): 0
HepSE_jaundice (Hepatotoxicity [6]): 0
HepSE_hepatomegaly (Hepatotoxicity [7]): 0
HepSE_hepatic failure (Hepatotoxicity [8]): 0
HepSE_elevated liver function tests (Hepatotoxicity [9]): 0
HepSE_bilirubinemia (Hepatotoxicity [10]): 0
HepSE_liver function tests abnormal (Hepatotoxicity [11]): 0
HepSE_cirrhosis (Hepatotoxicity [12]): 0
HepSE_liver disease (Hepatotoxicity [13]): 0
HepSE_cholecystitis (Hepatotoxicity [14]): 0

COc1ccc2cc(CCC(C)=O)ccc2c1 [NABUMETONE]
HepSE_hepatitis (Hepatotoxicity [1]): 0
HepSE_hepatic necrosis (Hepatotoxicity [2]): 0
HepSE_Combined Scores (Hepatotoxicity [3]): 3
HepSE_liver fatty (Hepatotoxicity [4]): 0
HepSE_cholelithiasis (Hepatotoxicity [5]): 0
HepSE_jaundice (Hepatotoxicity [6]): 1
HepSE_hepatomegaly (Hepatotoxicity [7]): 0
HepSE_hepatic failure (Hepatotoxicity [8]): 1
HepSE_elevated liver function tests (Hepatotoxicity [9]): 1
HepSE_bilirubinemia (Hepatotoxicity [10]): 0
HepSE_liver function tests abnormal (Hepatotoxicity [11]): 0
HepSE_cirrhosis (Hepatotoxicity [12]): 0
HepSE_liver disease (Hepatotoxicity [13]): 0
HepSE_cholecystitis (Hepatotoxicity [14]): 0

Cc1nc2ccc(CN(C)c3ccc(C(=O)N[C@@H](CCC(=O)O)C(=O)O)s3)cc2c(=O)[nH]1 [RALTITREXED]
HepSE_hepatitis (Hepatotoxicity [1]): 0
HepSE_hepatic necrosis (Hepatotoxicity [2]): 0
HepSE_Combined Scores (Hepatotoxicity [3]): 1
HepSE_liver fatty (Hepatotoxicity [4]): 0
HepSE_cholelithiasis (Hepatotoxicity [5]): 0
HepSE_jaundice (Hepatotoxicity [6]): 0
HepSE_hepatomegaly (Hepatotoxicity [7]): 0
HepSE_hepatic failure (Hepatotoxicity [8]): 1
HepSE_elevated liver function tests (Hepatotoxicity [9]): 0
HepSE_bilirubinemia (Hepatotoxicity [10]): 0
HepSE_liver function tests abnormal (Hepatotoxicity [11]): 0
HepSE_cirrhosis (Hepatotoxicity [12]): 0
HepSE_liver disease (Hepatotoxicity [13]): 0
HepSE_cholecystitis (Hepatotoxicity [14]): 0

Cc1ccccc1C(OCCN(C)C)c1ccccc1 (configuration not stated) [ORPHENADRINE]
HepSE_hepatitis (Hepatotoxicity [1]): 0
HepSE_hepatic necrosis (Hepatotoxicity [2]): 0
HepSE_Combined Scores (Hepatotoxicity [3]): 0
HepSE_liver fatty (Hepatotoxicity [4]): 0
HepSE_cholelithiasis (Hepatotoxicity [5]): 0
HepSE_jaundice (Hepatotoxicity [6]): 0
HepSE_hepatomegaly (Hepatotoxicity [7]): 0
HepSE_hepatic failure (Hepatotoxicity [8]): 0
HepSE_elevated liver function tests (Hepatotoxicity [9]; Liver): 0
HepSE_bilirubinemia (Hepatotoxicity [10]): 0
HepSE_liver function tests abnormal (Hepatotoxicity [11]; Liver): 0
HepSE_cirrhosis (Hepatotoxicity [12]): 0
HepSE_liver disease (Hepatotoxicity [13]): 0
HepSE_cholecystitis (Hepatotoxicity [14]): 0

COc1cc([C@@H]2c3cc4c(cc3[C@H](O)[C@H]3COC(=O)[C@H]23)OCO4)cc(OC)c1OC [PODOFILOX]
HepSE_hepatitis (Hepatotoxicity [1]): 0
HepSE_hepatic necrosis (Hepatotoxicity [2]): 0
HepSE_Combined Scores (Hepatotoxicity [3]): 0
HepSE_liver fatty (Hepatotoxicity [4]): 0
HepSE_cholelithiasis (Hepatotoxicity [5]): 0
HepSE_jaundice (Hepatotoxicity [6]): 0
HepSE_hepatomegaly (Hepatotoxicity [7]): 0
HepSE_hepatic failure (Hepatotoxicity [8]): 0
HepSE_elevated liver function tests (Hepatotoxicity [9]): 0
HepSE_bilirubinemia (Hepatotoxicity [10]): 0
HepSE_liver function tests abnormal (Hepatotoxicity [11]): 0
HepSE_cirrhosis (Hepatotoxicity [12]): 0
HepSE_liver disease (Hepatotoxicity [13]): 0
HepSE_cholecystitis (Hepatotoxicity [14]): 0

CC(=O)O[C@H]1C(=O)[C@@]2(C)[C@H]([C@H](OC(=O)c3ccccc3)[C@]3(O)C[C@H](OC(=O)[C@H](O)[C@@H](NC(=O)c4ccccc4)c4ccccc4)C(C)=C1C3(C)C)[C@]1(OC(C)=O)CO[C@@H]1C[C@@H]2O [PACLITAXEL]
HepSE_hepatitis (Hepatotoxicity [1]; Liver): 0
HepSE_hepatic necrosis (Hepatotoxicity [2]; Liver): 1
HepSE_Combined Scores (Hepatotoxicity [3]; Liver): 2
HepSE_liver fatty (Hepatotoxicity [4]; Liver): 0
HepSE_cholelithiasis (Hepatotoxicity [5]; Liver): 0
HepSE_jaundice (Hepatotoxicity [6]; Liver): 0
HepSE_hepatomegaly (Hepatotoxicity [7]; Liver): 0
HepSE_hepatic failure (Hepatotoxicity [8]; Liver): 0
HepSE_elevated liver function tests (Hepatotoxicity [9]; Liver): 1
HepSE_bilirubinemia (Hepatotoxicity [10]; Liver): 0
HepSE_liver function tests abnormal (Hepatotoxicity [11]; Liver): 0
HepSE_cirrhosis (Hepatotoxicity [12]; Liver): 0
HepSE_liver disease (Hepatotoxicity [13]; Liver): 0
HepSE_cholecystitis (Hepatotoxicity [14]; Liver): 0

CCN(CC)C(=O)/C(C#N)=C/c1cc(O)c(O)c([N+](=O)[O-])c1 [ENTACAPONE]
HepSE_hepatitis (Hepatotoxicity [1]): 1
HepSE_hepatic necrosis (Hepatotoxicity [2]): 0
HepSE_Combined Scores (Hepatotoxicity [3]): 5
HepSE_liver fatty (Hepatotoxicity [4]): 0
HepSE_cholelithiasis (Hepatotoxicity [5]): 1
HepSE_jaundice (Hepatotoxicity [6]): 0
HepSE_hepatomegaly (Hepatotoxicity [7]): 0
HepSE_hepatic failure (Hepatotoxicity [8]): 1
HepSE_elevated liver function tests (Hepatotoxicity [9]): 0
HepSE_bilirubinemia (Hepatotoxicity [10]): 1
HepSE_liver function tests abnormal (Hepatotoxicity [11]): 0
HepSE_cirrhosis (Hepatotoxicity [12]): 0
HepSE_liver disease (Hepatotoxicity [13]): 0
HepSE_cholecystitis (Hepatotoxicity [14]): 1

C[C@H]1c2cccc(O)c2C(=O)C2=C(O)[C@]3(O)C(=O)C(C(N)=O)=C(O)[C@@H](N(C)C)[C@@H]3[C@@H](O)[C@@H]21.O [DOXYCYCLINE]
HepSE_hepatitis (Hepatotoxicity [1]): 0
HepSE_hepatic necrosis (Hepatotoxicity [2]): 0
HepSE_Combined Scores (Hepatotoxicity [3]): 0
HepSE_liver fatty (Hepatotoxicity [4]): 0
HepSE_cholelithiasis (Hepatotoxicity [5]): 0
HepSE_jaundice (Hepatotoxicity [6]): 0
HepSE_hepatomegaly (Hepatotoxicity [7]): 0
HepSE_hepatic failure (Hepatotoxicity [8]): 0
HepSE_elevated liver function tests (Hepatotoxicity [9]): 0
HepSE_bilirubinemia (Hepatotoxicity [10]): 0
HepSE_liver function tests abnormal (Hepatotoxicity [11]): 0
HepSE_cirrhosis (Hepatotoxicity [12]): 0
HepSE_liver disease (Hepatotoxicity [13]): 0
HepSE_cholecystitis (Hepatotoxicity [14]): 0

FC(F)OC(F)(F)C(F)Cl (configuration not stated)
HepSE_hepatitis (Hepatotoxicity [1]): 0
HepSE_hepatic necrosis (Hepatotoxicity [2]): 1
HepSE_Combined Scores (Hepatotoxicity [3]): 2
HepSE_liver fatty (Hepatotoxicity [4]): 0
HepSE_cholelithiasis (Hepatotoxicity [5]): 0
HepSE_jaundice (Hepatotoxicity [6]): 0
HepSE_hepatomegaly (Hepatotoxicity [7]): 0
HepSE_hepatic failure (Hepatotoxicity [8]): 1
HepSE_elevated liver function tests (Hepatotoxicity [9]): 0
HepSE_bilirubinemia (Hepatotoxicity [10]): 0
HepSE_liver function tests abnormal (Hepatotoxicity [11]): 0
HepSE_cirrhosis (Hepatotoxicity [12]): 0
HepSE_liver disease (Hepatotoxicity [13]): 0
HepSE_cholecystitis (Hepatotoxicity [14]): 0
